From US11517575B2, “Use of minaprine to reduce tumor growth” (Institut Gustave-Roussy, priority 2019, dated 2022)

Tests used:
[1] = system: HCT116 cells; assay: Screening of chemical libraries for IR-mediated cellular cannibalism (imaging flow cytometry, confocal validation); type: cell-based, human; settings: 8 Gy irradiated HCT116 cells, 10 μM compound, 24 h culture
Method: FIG. 4 Identification of cannibalism modulators triggered by ionizing radiation. Compounds from the Prestwick (A) and CEA (F) libraries were tested for their capacities to induce cellular cannibalism after ionizing radiation. Cannibal cells were detected after homotypic cultures of 8 gray γ-irradiation HCT116 cells in the presence or absence of 10 μM of the Prestwick (A) and CEA […] library compounds. Each dot represents one compound. Representative images are shown in (B, G). (C, H) HCT116 cells were treated with the indicated drugs. After 24 h of treatment, cell death was monitored by staining with 3,3 dihexyloxacarbocyanine iodide (DiOC6(3)) and PI^+, and the percentage of dying (DiOC6(3)^low PI^−, open bars) and dead (DiOC6(3)^low PI^+, closed bars) cells was determined by cytofluorometry. Validation of the cannibalism inducers by fluorescent microscopy. Representative images (D, I) and quantification (E, J) are shown. Results are means s.e.m. of triplicate determinations.
Untreated HCT116 cells were labeled with CMFDA (green fluorescence, CMFDA^+) or CMTMR, (red fluorescence, CMTMR) and treated HCT116 cells with CMFDA (green fluorescence, CMFDA^+). The following cell mixtures were performed: untreated CMTMR^+ HCT116 cells were mixed with untreated CMFDA^+ HCT116 cells, or untreated CMTMR^+ HCT116 cells were mixed with treated CMFDA^+ HCT116 cells. Then, cells were co-cultured during 24 hours in the presence or absence of the pharmacological inhibitor of ROCK, Y27632 (30 μM), the pan-caspase inhibitor, Z-VAD-fmk (ZVAD, 100 μM), the inhibitor of caspase-1, Ac-YVAD-cmk (YVAD, 100 μM), the necroptosis inhibitor, Necrostatin-1 (NEC1, 30 μM), the inhibitor of the vacuolar type H(+)-ATPase (V-ATPase) inhibiting autophagy, Bafilomycin A1 (BafA1, 50 nM), the inhibitor of Cdks with an anti-mitotic activity, Roscovitine (Rosco, 10 μM). After 24 hours of co-culture, both detached and adherent cells were collected and stained with Hoechst […] (10 μg/mL) during 1 hour at 37° C. in warmed complete medium. To detect phosphatidylserine (PS) exposure and plasma membrane permeability, labeled HCT116 cells were successively incubated with Biotin-AnnexinV (BD Pharmingen) as recommended by manufacturer, […] BV786-Streptavidin (BD Biosciences) and 3 μM DRAQ7 (BioStatus) during 15 minutes at 25° C. After washing with PBS solution, samples were immediately analyzed using an imaging flow cytometer FlowSight® (Amnis®, part of EMD Millipore). Data were acquired at a 20× magnification, using INSPIRE software. The 405 nm, 488 nm, and 561 nm lasers were used for excitation. Brightfield, Annexin V-BV786, DRAQ7, CMFDA, CMTMR and Hoechst […] stainings were detected using respectively channels for 420-480 nm, 745-800 nm, 642-745 nm, 480-560 nm, 595-642 nm and 430-505 nm. At least 1000 events of cells per sample were analyzed. Additional single-labeled controls were prepared to normalize fluorescent signal across different channels. Acquired data were analyzed using the IDEAS analysis software (v6.1; Merck-Millipore). Gating strategy was the following. Cells were gated for focused cells using the Gradient RMS feature. Cells were gated for single cells using the aspect ratio and area features. For the cannibalism detection, cells were gated in the double positive CMFDA^+ and CMTMR^+ staining.
To detect PS exposure, plasma membrane permeability and cell cycle progression, cells were after co-culture sequentially labeled with specific fluorescent probes (such as FITC-conjugated AnnexinV, propidium iodide, and Hoechst 33342) and analyzed by flow cytometry. Both detached and adherent cells were collected and stained with Hoechst […] (10 μg/ml) during 1 hour at 37° C. in warmed complete medium. After washing with PBS, HCT116 cells were suspended in 1× binding buffer supplemented with fluorescein isothiocyanate (FITC)-conjugated Annexin V (BD Biosciences) and propidium iodide (PI, 1 μg/mL) (Sigma), as per manufacturer's instructions. […]

[2] = system: CT26 cells; assay: Anti-tumor vaccination assay, CT26 cells in BALB/c mice; type: in vivo, mouse; settings: for frequency of mice showing a protective response: 8 Gy + 10 μM compound 24 h
Method: FIG. 5. Identification of cannibalism modulators as immunogenic cell death inducers. MCA205 (A) or CT26 (E, I, M, Q) cells were treated with the indicated drugs. After 24 h of coculture with the indicated treatment, cell death was monitored by staining DiOC6(3) and PI, and the percentage of dying (DiOC6(3)^low PI^−, open bars) and dead (DiOC6(3)^low PI^+, closed bars) cells was determined by cytofluorometry. (B-D) MCA205 cells or (F-H, J-L, N-P, R-T) CT26 cells cocultured after x irradiation with the indicated compounds were inoculated subcutaneously into the right flank of […] or BALB/c mice, respectively. Seven days later, the mice were rechallenged with live cells injected into the opposite flank, and tumor growth was monitored (five mice per group).
FIG. 6. Tumor vaccination experiments. CT26 cells were treated for 24 hours with 10 μM VP331 (A, F, K), 10 μM Minaprine (B, G, L), 10 μM Lopa87 (C, H, M), 10 μM SG6163F (D, I, N), 10 μM Azaguanine-8 (8-aza) (E, J, O) alone or combined with 8 Gy ionizing radiation and inoculated (s.c.) into immunocompetent BALB/c mice, which were rechallenged at the opposite flank 7 days later with the same cancer cells. The percentage of tumor-free mice was evaluated three times a week for the following 38 days. Percentage of total tumor free mice (A-E), tumor free-mice at the first injection site (F to J, P) or at the second injection site (K to O, Q) are shown. (*P<0.05, **P<0.01, ***P<0.001, two-way ANOVA).
The combination of IRCCE with IR induces efficient antitumor immunity. Considering that immunogenic cell death (ICD) inducers were identified (such as Digoxin, Digitoxin, Lanatoside C or Doxorubicin hydrochloride)^3, 4, 48-51) as IRCCE, the ability of these compounds to induce an antitumor immunity after radiotherapy was evaluated. First, a preclinical approaches was developed to study the immunological effects of IRCCE on two mouse models of carcinoma (colon CT26 carcinoma and fibrosarcoma MCA205). Initially, the ability of the combination of IRCCE+IR to trigger a specific anti-tumor immune response was appreciated using immunocompetent mice through anti-tumor vaccination assays. According to previously published studies^52, the injection of cancer cells succumbing to an immunogenic cell death (ICD) into immunocompetent mice must elicit a protective immune response that is specific for tumor antigens. Thus, 3×10^5 MCA205 cells were first treated with 10 μM of SG6163F for 24 hours. Then, treated cells were inoculated subcutaneously in 200 μl PBS into the lower flank of 8-week-old female C57BL/6 mice. One week later, 3×10^4 untreated control cells were inoculated into the contralateral flank of mice. Tumors were evaluated weekly using a common caliper. Animals bearing tumors that exceeded 20-25% body mass were euthanatized. […] Then, 3×10^6 CT26 cells were irradiated with 8 Gy in presence of 10 μM of SG6163F (FIGS. 5E and 5F), VP331 (FIGS. 5I and 5J), Minaprine dihydrochloride (FIGS. 5M and 5N) or LOPA87 (FIGS. 5Q and 5R) for 24 hours. Then, cells were inoculated as previously described subcutaneously in […] into the lower flank of 8-week-old female BALB/c mice. One week later, 5×10^5 untreated control cells were inoculated into the contralateral flank of mice and tumors were evaluated weekly using a common caliper. As previously mentioned, animals bearing tumors that exceeded 20-25% body mass were euthanatized. The percentage of dying cells in each condition was evaluated by determining with DiOC(6)3/IP staining (FIGS. 5E, 5I, 5M and 5Q). Finally, the ability of these compounds to repress the growth of cancer cells that have been injected 7 days after injection of irradiated and treated cancer cells was appreciated.
A second anti-tumor vaccination assay was done on CT26 mouse models of carcinoma as previously described. […]

[3] = second assay: CT26 cells, rechallenge 7 days later
[4] = first assay: CT26 cells, rechallenge one week later

## Myricetin
[1]
  enhancement of IR-mediated cellular cannibalism: efficient cellular cannibalism enhancer

## C[C@H]1O[C@@H](O[C@H]2[C@@H](O)C[C@H](O[C@H]3[C@@H](O)C[C@H](O[C@H]4CC[C@@]5(C)[C@H](CC[C@@H]6[C@@H]5CC[C@]5(C)[C@@H](C7=CC(=O)OC7)CC[C@]65O)C4)O[C@@H]3C)O[C@@H]2C)C[C@H](O)[C@@H]1O [Digitoxin]
[1]
  enhancement of IR-mediated cellular cannibalism: efficient cellular cannibalism enhancer

## O=C(N/N=C/c1ncc[nH]1)NC12CC3CC(CC(C3)C1)C2 [VP450]
[1]
  enhancement of IR-mediated cellular cannibalism: efficient cellular cannibalism enhancer

## Nc1nc2[nH]nnc2c(=O)[nH]1 [Azaguanine-8]
[1]
  enhancement of IR-mediated cellular cannibalism: efficient cellular cannibalism enhancer
[2]; second assay: CT26 cells treated with 10 μM compound alone (no IR)
  protective response after injection of cancer cells: induce an increase of protective response
[2]; [3]
  frequency of mice showing a protective response: Significant increases in the frequency of mice showing a protective response

## COc1ccc(C)cc1/C=N/[C@@H]1C[C@@H]2C[C@H]([C@H]1C)C2(C)C [VP331]
[1]
  enhancement of IR-mediated cellular cannibalism: efficient cellular cannibalism enhancer
[2]; [4]
  frequency of mice showing a protective response: significant increase in the frequency of mice showing a protective response
[2]; [3]
  frequency of mice showing a protective response: Significant increases in the frequency of mice showing a protective response

## C[C@H]1O[C@@H](O[C@H]2[C@@H](O)C[C@H](O[C@H]3[C@@H](O)C[C@H](O[C@H]4CC[C@@]5(C)[C@H](CC[C@@H]6[C@@H]5C[C@@H](O)[C@]5(C)[C@@H](C7=CC(=O)OC7)CC[C@]65O)C4)O[C@@H]3C)O[C@@H]2C)C[C@H](O)[C@@H]1O [Digoxin]
[1]
  enhancement of IR-mediated cellular cannibalism: efficient cellular cannibalism enhancer

## COc1cc(O)ccc1/C=N/c1ccccc1C(=O)Nc1ccccc1 [RN-1-026]
[1]
  enhancement of IR-mediated cellular cannibalism: efficient cellular cannibalism enhancer

## COc1cccc2c1C(=O)c1c(O)c3c(c(O)c1C2=O)C[C@@](O)(C(=O)CO)C[C@@H]3O[C@H]1C[C@H](N)[C@H](O)[C@H](C)O1.Cl [Doxorubicin hydrochloride]
[1]
  enhancement of IR-mediated cellular cannibalism: efficient cellular cannibalism enhancer

## CN1c2ccccc2C(=O)N(c2ccccc2)C1c1ccc(-c2csc(CO)n2)s1 (stereo not shown) [VP43]
[1]
  enhancement of IR-mediated cellular cannibalism: efficient cellular cannibalism enhancer

## CN(C)c1ccc(-c2cc(=O)[nH]c(-c3ccccc3)n2)cc1 [LOPA87]
[1]
  enhancement of IR-mediated cellular cannibalism: efficient cellular cannibalism enhancer
[2]; [4]
  frequency of mice showing a protective response: significant increase in the frequency of mice showing a protective response
[2]; [3]
  frequency of mice showing a protective response: Significant increases in the frequency of mice showing a protective response

## CC(C(=O)O)c1ccc(-c2ccccc2)c(F)c1 (stereo not shown) [Flurbiprofen]
[1]
  enhancement of IR-mediated cellular cannibalism: efficient cellular cannibalism enhancer

## CC(=O)O[C@H]1C[C@H](O[C@H]2[C@@H](O)C[C@H](O[C@H]3[C@@H](O)C[C@H](O[C@H]4CC[C@@]5(C)[C@H](CC[C@@H]6[C@@H]5C[C@@H](O)[C@]5(C)[C@@H](C7=CC(=O)OC7)CC[C@]65O)C4)O[C@@H]3C)O[C@@H]2C)O[C@H](C)[C@H]1O[C@@H]1O[C@H](CO)[C@@H](O)[C@H](O)[C@H]1O [Lanatoside C]
[1]
  enhancement of IR-mediated cellular cannibalism: efficient cellular cannibalism enhancer

## CN1CCc2c(c3ccccc3n2Cc2ccccc2)C1 [Mebhydroline 1,5-naphtalene-disulfonate]
[1]
  enhancement of IR-mediated cellular cannibalism: efficient cellular cannibalism enhancer
